Data from US7179832B2, “Glycogen synthase kinase 3β inhibitor, composition and process for the preparation thereof” (Crystalgenomics, Inc., priority 2003, dated 2007).

Biological target: GSK-3β (Homo sapiens, UniProt P49841)
Assay: Assay for GSK-3β inhibiting activity (32P-ATP, phospho-CREB peptide substrate, filter paper, CPM)
Format: biochemical
Settings: GSK-3β inhibiting activity; 100 nM GSK-3β protein, 100 μM phospho-CREB peptide, 100 μM ATP, 30° C. for 1 hour; read-out: IC50

GSK-3β, sequence (P49841 whole entry): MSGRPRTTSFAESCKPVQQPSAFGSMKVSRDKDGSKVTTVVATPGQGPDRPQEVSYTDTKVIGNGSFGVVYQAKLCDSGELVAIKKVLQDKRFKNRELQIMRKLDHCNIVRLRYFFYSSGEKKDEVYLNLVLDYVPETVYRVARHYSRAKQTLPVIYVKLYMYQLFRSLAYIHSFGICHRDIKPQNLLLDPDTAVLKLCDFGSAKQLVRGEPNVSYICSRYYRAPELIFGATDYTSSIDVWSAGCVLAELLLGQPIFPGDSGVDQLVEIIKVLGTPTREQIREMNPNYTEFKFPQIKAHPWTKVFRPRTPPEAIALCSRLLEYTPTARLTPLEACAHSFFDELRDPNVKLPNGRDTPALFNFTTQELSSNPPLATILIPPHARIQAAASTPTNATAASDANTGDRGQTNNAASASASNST

In the case of O=C(NCCCn1ccnc1)c1ccc(O)c2[nH]c(-c3ccc(F)cc3F)nc12 [Compound 192], the IC50 is reported as 8 nM.
In the case of Cc1cn(CCCNC(=O)c2ccc(O)c3[nH]c(-c4ccc(F)cc4F)nc23)cn1 [Compound 193], the IC50 is reported as 20 nM.
With O=C(NCCCn1cnc(Cl)c1Cl)c1ccc(O)c2[nH]c(-c3ccc(F)cc3F)nc12 [Compound 194] the IC50 was 4 nM.
With Cc1nccn1CCCNC(=O)c1ccc(O)c2[nH]c(-c3ccc(F)cc3F)nc12 [Compound 195] the IC50 was 30 nM.
In the case of CCc1nccn1CCCNC(=O)c1ccc(O)c2[nH]c(-c3ccc(F)cc3F)nc12 [Compound 196], the IC50 is reported as 20 nM.
O=C(NCCCn1cnc(Cl)c1Cl)c1ccc(O)c2[nH]c(-c3ccc(F)cc3F)nc12 [Compound 197] was tested, and the IC50 was 3 nM.
With O=C(NCCCn1ccnc1)c1ccc(O)c2[nH]c(-c3ccc(F)cc3Cl)nc12 [Compound 198] the IC50 was 20 nM.
In the case of Cc1cn(CCCNC(=O)c2ccc(O)c3[nH]c(-c4ccc(F)cc4Cl)nc23)cn1 [Compound 199], the IC50 is reported as 10 nM.
For O=C(NCCCn1cnc(Cl)c1Cl)c1ccc(O)c2[nH]c(-c3ccc(F)cc3Cl)nc12 [Compound 200], the IC50 was 2 nM.
Compound Cc1nccn1CCCNC(=O)c1ccc(O)c2[nH]c(-c3ccc(F)cc3Cl)nc12 [Compound 201] has an IC50 of 70 nM.
With Cc1cn(CCCNC(=O)c2ccc(O)c3[nH]c(-c4ccc(F)c(Cl)c4)nc23)cn1 [Compound 202] the IC50 was 9 nM.
In the case of O=C(NCCCn1ccnc1)c1ccc(O)c2nc(-c3ccc(F)c(Cl)c3)[nH]c12 [Compound 203], the IC50 is reported as 3 nM.
With O=C(NCCCn1cnc(Cl)c1Cl)c1ccc(O)c2[nH]c(-c3ccc(NCCN4CCOCC4)cc3)nc12 [Compound 204, 7-hydroxy-2-[4-(2-morpholin-4-yl-ethylamino)-phenyl]-1H-benzoimidazole-4-carboxylic acid [3-(4,5-dichloro-imidazol-1-yl)-propyl]-amide] the IC50 was greater than 5000 nM.
